For one data set, the target named is T1, CYP1A2 (Homo sapiens, UniProt P05177).
T1 sequence (P05177 1-516): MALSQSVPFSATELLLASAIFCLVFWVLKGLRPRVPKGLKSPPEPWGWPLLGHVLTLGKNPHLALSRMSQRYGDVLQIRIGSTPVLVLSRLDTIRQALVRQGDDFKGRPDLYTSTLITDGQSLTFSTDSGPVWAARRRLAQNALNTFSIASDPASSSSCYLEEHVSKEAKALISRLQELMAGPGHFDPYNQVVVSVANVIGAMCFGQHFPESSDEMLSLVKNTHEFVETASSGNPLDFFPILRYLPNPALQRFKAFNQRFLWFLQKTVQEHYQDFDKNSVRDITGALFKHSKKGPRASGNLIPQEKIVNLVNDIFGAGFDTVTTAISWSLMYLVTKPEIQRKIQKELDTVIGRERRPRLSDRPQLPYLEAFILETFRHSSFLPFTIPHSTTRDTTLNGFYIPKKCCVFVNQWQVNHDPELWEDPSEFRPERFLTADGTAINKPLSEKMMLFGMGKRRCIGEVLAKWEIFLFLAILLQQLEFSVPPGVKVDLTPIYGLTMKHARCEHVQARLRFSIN
Put plainly: CYP inhibition. The format is in vitro ADME. Here is the method:
Table 6 In vitro liver metabolic stability and activity against CYPs of potent analogues. | column: CYP % Activity at 10 μM / 1A2

Another data set addresses CYP2C19 (Homo sapiens, UniProt P33261). Put plainly: CYP inhibition. It counts as in vitro ADME. The method, then:
Table 6 In vitro liver metabolic stability and activity against CYPs of potent analogues. | column: CYP % Activity at 10 μM / 2C19

The target in a further data set is CYP2D6 (Homo sapiens, UniProt P10635). The data set is described as follows: CYP inhibition. It counts as in vitro ADME. The method, then:
Table 6 In vitro liver metabolic stability and activity against CYPs of potent analogues. | column: CYP % Activity at 10 μM / 2D6

In another data set the target is T2, CSNK2A1 (Homo sapiens, UniProt P68400).
T2 construct: purchased Reaction Biology Corp
T2 sequence (P68400 whole entry): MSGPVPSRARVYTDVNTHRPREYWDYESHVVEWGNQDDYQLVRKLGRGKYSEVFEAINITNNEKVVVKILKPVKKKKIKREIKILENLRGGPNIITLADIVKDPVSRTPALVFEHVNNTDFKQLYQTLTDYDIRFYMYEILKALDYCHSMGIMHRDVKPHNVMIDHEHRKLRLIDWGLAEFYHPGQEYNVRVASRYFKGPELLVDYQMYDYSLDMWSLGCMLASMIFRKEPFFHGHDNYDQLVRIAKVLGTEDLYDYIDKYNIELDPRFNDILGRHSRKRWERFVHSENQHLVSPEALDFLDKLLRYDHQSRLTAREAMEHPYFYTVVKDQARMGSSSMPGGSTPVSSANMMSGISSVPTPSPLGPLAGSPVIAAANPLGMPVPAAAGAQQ
The data set is described as follows: Kinome-wide inhibition profiling. The format is biochemical. Here is the method:
(§1) In vitro CDK12/cyclinK assays for all compounds and in vitro kinome-wide inhibition profiling of 30d at 10 μM were performed by a CRO company (Reaction Biology Corp., San Diego, CA, USA).

A further data set addresses T3, CAMK2b (Homo sapiens, UniProt Q13554).
T3 construct: purchased Reaction Biology Corp
The data set is described as follows: Kinome-wide inhibition profiling. The format is biochemical. The method, then:
as §1

Another data set concerns the target T4, EPHA5 (Homo sapiens, UniProt P54756).
T4 construct: purchased Reaction Biology Corp
The data set is described as follows: Kinome-wide inhibition profiling. The format is biochemical. The method, then:
as §1

The target of another data set is T5, TRKA (Homo sapiens, UniProt P04629).
T5 construct: purchased Reaction Biology Corp
The data set is described as follows: Kinome-wide inhibition profiling. It counts as biochemical. Here is the method:
as §1

In a further data set the target is T6, SNARK (Homo sapiens, UniProt Q9H093).
T6 construct: purchased Reaction Biology Corp
Put plainly: Kinome-wide inhibition profiling. The format is biochemical. The method, then:
as §1

Another data set has as its target T7, HIPK4 (Homo sapiens, UniProt Q8NE63).
T7 construct: purchased Reaction Biology Corp
The data set is described as follows: Kinome-wide inhibition profiling. The format is biochemical. Here is the method: as §1

A further data set concerns PKAC-alpha. The data set is described as follows: Kinome-wide inhibition profiling. The format is biochemical, human. The following applies: 10 μM. Here is the method: as §1
A further data set deals with T8, TAOK3 (Homo sapiens, UniProt Q9H2K8).
T8 construct: purchased Reaction Biology Corp
T8 sequence (Q9H2K8 whole entry): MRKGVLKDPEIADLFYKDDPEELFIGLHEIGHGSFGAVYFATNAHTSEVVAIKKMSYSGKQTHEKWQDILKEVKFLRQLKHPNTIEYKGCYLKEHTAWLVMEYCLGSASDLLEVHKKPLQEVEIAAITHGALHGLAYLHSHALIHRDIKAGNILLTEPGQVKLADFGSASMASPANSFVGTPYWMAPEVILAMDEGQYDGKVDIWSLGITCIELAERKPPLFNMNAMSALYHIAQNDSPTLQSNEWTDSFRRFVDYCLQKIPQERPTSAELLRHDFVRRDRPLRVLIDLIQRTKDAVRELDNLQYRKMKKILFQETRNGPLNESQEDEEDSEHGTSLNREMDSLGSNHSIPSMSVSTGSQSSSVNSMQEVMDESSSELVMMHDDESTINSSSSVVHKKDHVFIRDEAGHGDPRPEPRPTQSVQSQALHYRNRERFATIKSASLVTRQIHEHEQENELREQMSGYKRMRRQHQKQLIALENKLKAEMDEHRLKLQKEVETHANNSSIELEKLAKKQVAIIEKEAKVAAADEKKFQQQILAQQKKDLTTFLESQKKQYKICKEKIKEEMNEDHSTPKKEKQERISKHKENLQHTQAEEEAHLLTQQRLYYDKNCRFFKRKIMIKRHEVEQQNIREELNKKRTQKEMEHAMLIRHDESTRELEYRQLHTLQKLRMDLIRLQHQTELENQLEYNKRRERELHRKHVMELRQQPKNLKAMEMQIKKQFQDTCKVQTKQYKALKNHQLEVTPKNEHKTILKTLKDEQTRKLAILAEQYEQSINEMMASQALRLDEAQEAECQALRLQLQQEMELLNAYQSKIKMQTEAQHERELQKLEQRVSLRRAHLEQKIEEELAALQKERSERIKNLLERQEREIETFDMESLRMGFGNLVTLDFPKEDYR
More on the design: method as in HMS LINCS database. The following applies: 10 μM, ref HMS LINCS database; cited from earlier work.

The target in the next data set is T9, TAOK1 (Homo sapiens, UniProt Q7L7X3).
T9 construct: purchased Reaction Biology Corp
More on the design: method as in HMS LINCS database. The conditions noted are these: 10 μM, ref HMS LINCS database; cited from earlier work.

Another data set addresses T10, YSK1 (Homo sapiens, UniProt O00506).
T10 construct: purchased Reaction Biology Corp
More on the design: method as in HMS LINCS database. The conditions noted are these: 10 μM, ref HMS LINCS database; cited from earlier work.

For the next data set, the target named is T11, TLK1 (Homo sapiens, UniProt Q9UKI8).
T11 construct: purchased Reaction Biology Corp
T11 sequence (Q9UKI8 whole entry): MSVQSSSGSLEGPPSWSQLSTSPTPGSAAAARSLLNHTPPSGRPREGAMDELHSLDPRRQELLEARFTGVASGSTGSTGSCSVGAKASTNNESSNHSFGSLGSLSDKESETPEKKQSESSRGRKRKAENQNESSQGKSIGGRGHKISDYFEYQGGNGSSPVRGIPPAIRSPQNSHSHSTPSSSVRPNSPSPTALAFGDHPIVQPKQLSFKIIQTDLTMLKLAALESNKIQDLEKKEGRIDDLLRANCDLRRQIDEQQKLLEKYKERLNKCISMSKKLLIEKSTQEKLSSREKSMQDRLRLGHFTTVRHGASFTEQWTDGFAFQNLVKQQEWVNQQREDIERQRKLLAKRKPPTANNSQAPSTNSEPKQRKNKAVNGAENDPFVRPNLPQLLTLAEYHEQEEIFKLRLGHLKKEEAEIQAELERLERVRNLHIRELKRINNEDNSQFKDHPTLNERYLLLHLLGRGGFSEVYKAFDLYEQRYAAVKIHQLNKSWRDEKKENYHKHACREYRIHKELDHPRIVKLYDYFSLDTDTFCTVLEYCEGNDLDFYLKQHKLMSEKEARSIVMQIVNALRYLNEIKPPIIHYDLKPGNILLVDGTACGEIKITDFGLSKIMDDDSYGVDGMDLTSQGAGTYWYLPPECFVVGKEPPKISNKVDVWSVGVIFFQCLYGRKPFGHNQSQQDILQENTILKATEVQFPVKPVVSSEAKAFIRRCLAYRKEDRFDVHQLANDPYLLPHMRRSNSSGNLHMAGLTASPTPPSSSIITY
Also on record: method as in HMS LINCS database. The conditions noted are these: 10 μM, ref HMS LINCS database; cited from earlier work.

The target in another data set is T12, GSK3a (Homo sapiens, UniProt P49840).
T12 construct: purchased Reaction Biology Corp
Also on record: method as in HMS LINCS database. The conditions noted are these: 10 μM, ref HMS LINCS database; cited from earlier work.

The subject of a further data set is CDC2L5. Also on record: method as in HMS LINCS database. The following applies: 10 μM, ref HMS LINCS database; cited from earlier work.
In another data set the target is T13, DYRK1B (Homo sapiens, UniProt Q9Y463).
T13 construct: purchased Reaction Biology Corp
More on the design: method as in HMS LINCS database. The following applies: 10 μM, ref HMS LINCS database; cited from earlier work.

The next data set relates to PCTK1. Also on record: method as in HMS LINCS database. The conditions noted are these: 10 μM, ref HMS LINCS database; cited from earlier work.
A further data set deals with PFTAIRE2. Also on record: method as in HMS LINCS database. The conditions noted are these: 10 μM, ref HMS LINCS database; cited from earlier work.
The target of the next data set is T14, ERK5 (Homo sapiens, UniProt Q13164).
T14 construct: purchased Reaction Biology Corp
More on the design: method as in HMS LINCS database. The following applies: 10 μM, ref HMS LINCS database; cited from earlier work.

The next data set deals with CDK4-cyclinD3. Also on record: method as in HMS LINCS database. The following applies: 10 μM, ref HMS LINCS database; cited from earlier work.
For a further data set, the system named is CDK3. Also on record: method as in HMS LINCS database. The conditions noted are these: 10 μM, ref HMS LINCS database; cited from earlier work.
A further data set has as its target T15, ICK (Homo sapiens, UniProt Q9UPZ9).
T15 construct: purchased Reaction Biology Corp
More on the design: method as in HMS LINCS database. The conditions noted are these: 10 μM, ref HMS LINCS database; cited from earlier work.

A further data set deals with T16, PAK3 (Homo sapiens, UniProt O75914).
T16 construct: purchased Reaction Biology Corp
Also on record: method as in HMS LINCS database. The following applies: 10 μM, ref HMS LINCS database; cited from earlier work.

The target of the next data set is T17, TLK2 (Homo sapiens, UniProt Q86UE8).
T17 construct: purchased Reaction Biology Corp
T17 sequence (Q86UE8 whole entry): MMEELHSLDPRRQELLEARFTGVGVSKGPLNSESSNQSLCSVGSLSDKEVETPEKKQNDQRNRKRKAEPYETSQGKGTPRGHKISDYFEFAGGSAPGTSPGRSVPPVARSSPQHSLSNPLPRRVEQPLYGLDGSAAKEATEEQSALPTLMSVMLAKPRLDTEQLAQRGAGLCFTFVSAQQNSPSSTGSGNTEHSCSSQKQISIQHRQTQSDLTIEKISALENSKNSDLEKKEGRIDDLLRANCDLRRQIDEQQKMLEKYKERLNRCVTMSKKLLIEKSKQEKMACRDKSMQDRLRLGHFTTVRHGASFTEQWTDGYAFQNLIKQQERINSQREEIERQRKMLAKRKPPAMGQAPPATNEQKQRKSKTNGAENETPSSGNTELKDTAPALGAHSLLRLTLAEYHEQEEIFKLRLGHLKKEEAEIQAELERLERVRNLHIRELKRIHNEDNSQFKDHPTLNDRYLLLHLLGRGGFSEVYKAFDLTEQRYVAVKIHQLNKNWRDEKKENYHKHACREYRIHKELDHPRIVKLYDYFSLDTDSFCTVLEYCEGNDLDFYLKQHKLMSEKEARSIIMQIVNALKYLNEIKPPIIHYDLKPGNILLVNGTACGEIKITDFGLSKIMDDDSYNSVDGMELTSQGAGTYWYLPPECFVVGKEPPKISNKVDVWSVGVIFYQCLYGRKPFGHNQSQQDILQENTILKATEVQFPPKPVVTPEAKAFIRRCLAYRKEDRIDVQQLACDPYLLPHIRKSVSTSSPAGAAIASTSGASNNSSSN
Also on record: method as in HMS LINCS database. The conditions noted are these: 10 μM, ref HMS LINCS database; cited from earlier work.

Another data set deals with PFPK5(P.falciparum). More on the design: method as in HMS LINCS database. The conditions noted are these: 10 μM, ref HMS LINCS database; cited from earlier work.
Another data set relates to CDKL5. Also on record: method as in HMS LINCS database. The following applies: 10 μM, ref HMS LINCS database; cited from earlier work.
Another data set concerns the target T18, CLK4 (Homo sapiens, UniProt Q9HAZ1).
T18 construct: purchased Reaction Biology Corp
Also on record: method as in HMS LINCS database. The conditions noted are these: 10 μM, ref HMS LINCS database; cited from earlier work.

The target in the next data set is T19, TAOK2 (Homo sapiens, UniProt Q9UL54).
T19 construct: purchased Reaction Biology Corp
More on the design: method as in HMS LINCS database. The following applies: 10 μM, ref HMS LINCS database; cited from earlier work.

Another data set deals with T20, HIPK3 (Homo sapiens, UniProt Q9H422).
T20 construct: purchased Reaction Biology Corp
More on the design: method as in HMS LINCS database. The conditions noted are these: 10 μM, ref HMS LINCS database; cited from earlier work.

These results are taken from PMC9506414, “Novel 2,6,9-Trisubstituted Purines as Potent CDK Inhibitors Alleviating Trastuzumab-Resistance of HER2-Positive Breast Cancers” (Pharmaceuticals, 2022).

Chain of CYP2D6 (P10635 whole entry): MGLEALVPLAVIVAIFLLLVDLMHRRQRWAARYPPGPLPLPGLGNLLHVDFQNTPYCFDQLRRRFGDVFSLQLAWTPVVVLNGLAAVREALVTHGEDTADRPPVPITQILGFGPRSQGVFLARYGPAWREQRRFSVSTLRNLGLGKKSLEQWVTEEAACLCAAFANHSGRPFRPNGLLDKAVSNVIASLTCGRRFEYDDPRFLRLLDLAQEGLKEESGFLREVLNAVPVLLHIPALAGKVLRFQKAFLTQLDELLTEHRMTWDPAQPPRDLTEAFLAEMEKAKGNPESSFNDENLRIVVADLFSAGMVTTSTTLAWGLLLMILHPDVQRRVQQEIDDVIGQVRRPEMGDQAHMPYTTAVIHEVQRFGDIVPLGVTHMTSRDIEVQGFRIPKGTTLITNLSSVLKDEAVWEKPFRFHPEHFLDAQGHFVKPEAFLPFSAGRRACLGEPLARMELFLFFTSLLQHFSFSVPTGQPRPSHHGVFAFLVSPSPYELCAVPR
Chain of CYP2C19 (P33261 whole entry): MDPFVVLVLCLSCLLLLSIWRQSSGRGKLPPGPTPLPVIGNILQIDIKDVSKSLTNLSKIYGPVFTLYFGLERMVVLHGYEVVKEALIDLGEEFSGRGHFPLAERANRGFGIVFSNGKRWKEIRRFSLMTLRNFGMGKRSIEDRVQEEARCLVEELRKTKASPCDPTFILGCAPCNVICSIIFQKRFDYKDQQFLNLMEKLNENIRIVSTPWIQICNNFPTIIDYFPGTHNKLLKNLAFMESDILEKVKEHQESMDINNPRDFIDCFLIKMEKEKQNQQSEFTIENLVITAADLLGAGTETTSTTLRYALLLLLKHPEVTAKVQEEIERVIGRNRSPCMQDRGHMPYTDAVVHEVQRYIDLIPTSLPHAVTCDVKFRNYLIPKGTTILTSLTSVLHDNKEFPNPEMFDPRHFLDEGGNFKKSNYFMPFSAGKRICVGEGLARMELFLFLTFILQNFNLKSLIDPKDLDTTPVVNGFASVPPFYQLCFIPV
T4 sequence (P54756 25-1037): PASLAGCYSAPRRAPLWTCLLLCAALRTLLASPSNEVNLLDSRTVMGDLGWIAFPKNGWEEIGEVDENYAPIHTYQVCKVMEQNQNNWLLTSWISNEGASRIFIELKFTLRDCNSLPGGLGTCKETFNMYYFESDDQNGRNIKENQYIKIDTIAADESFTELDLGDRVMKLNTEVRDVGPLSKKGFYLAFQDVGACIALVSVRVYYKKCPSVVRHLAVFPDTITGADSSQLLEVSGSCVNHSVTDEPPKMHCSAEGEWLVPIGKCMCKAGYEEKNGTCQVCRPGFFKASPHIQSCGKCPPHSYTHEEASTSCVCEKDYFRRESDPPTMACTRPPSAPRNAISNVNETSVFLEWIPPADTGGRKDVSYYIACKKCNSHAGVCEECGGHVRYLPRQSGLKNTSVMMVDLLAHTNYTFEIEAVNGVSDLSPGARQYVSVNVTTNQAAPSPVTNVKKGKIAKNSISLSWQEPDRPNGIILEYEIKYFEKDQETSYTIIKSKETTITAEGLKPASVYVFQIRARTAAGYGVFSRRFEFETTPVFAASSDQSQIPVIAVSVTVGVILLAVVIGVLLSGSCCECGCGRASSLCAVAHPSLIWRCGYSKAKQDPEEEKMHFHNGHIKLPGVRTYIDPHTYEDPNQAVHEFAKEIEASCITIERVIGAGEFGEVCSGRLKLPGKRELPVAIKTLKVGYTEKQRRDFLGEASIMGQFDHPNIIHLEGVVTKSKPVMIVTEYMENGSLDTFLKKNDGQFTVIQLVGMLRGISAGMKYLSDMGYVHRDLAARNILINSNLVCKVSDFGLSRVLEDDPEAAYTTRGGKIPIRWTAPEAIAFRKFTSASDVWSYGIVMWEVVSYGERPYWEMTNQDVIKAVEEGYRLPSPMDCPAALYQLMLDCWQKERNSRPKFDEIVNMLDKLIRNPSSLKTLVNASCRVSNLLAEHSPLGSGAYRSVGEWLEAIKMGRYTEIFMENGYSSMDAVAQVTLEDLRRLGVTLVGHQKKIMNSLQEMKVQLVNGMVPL

Turning to `CCn1cnc2c(NCc3ccc(-c4ccccn4)nc3)nc(-c3cnc(N)nc3)nc21` [Compound 30e, N-([2,2′-Bipyridin]-5-ylmethyl)-2-(2-aminopyrimidin-5-yl)-9-ethyl-9H-purin-6-amine], the “CYP % Activity at 10 μM 1A2” value on CYP1A2 was 87.6%. Further, the “CYP % Activity at 10 μM 2C19” value on CYP2C19 amounted to 72.6%. Besides, the “CYP % Activity at 10 μM 2D6” value on CYP2D6 is listed as 92.1%.

What is called remaining activity is the signal under treatment as a percentage of the control signal. High values mean a small loss of activity, low ones a large loss of activity. For the compound `CCn1cnc2c(NCc3ccc(-c4ccccn4)nc3)nc(-c3ccc(N)nc3)nc21` [Compound 30d, N-([2,2′-Bipyridin]-5-ylmethyl)-2-(6-aminopyridin-3-yl)-9-ethyl-9H-purin-6-amine], at CYP1A2, the “CYP % Activity at 10 μM 1A2” value was 74.7%. Further, on CYP2C19, the “CYP % Activity at 10 μM 2C19” value amounted to 68.1%. Also, the “CYP % Activity at 10 μM 2D6” value on CYP2D6 turned out to be 81.0%. The remaining activity at 10 µM at CSNK2A1 amounted to 84.2%; on CAMK2b it was 65.2%; on EPHA5, 5.9%; on TRKA, 28.7%; on SNARK it was 59%; on HIPK4, 43.9%. Moreover, the “% remaining activity” value in the data set on PKAC-alpha turned out to be 62.4%.

As for `CCc1cnn2c(NCc3ccc[n+]([O-])c3)cc(N3CCCC[C@H]3CCO)nc12` [Dinaciclib], the “% control” value at TAOK3 was 3.8%; at TAOK1 it was 3.1%; on YSK1, 9.2%; at TLK1, 0.9%; at GSK3a, 3.0%; with CDC2L5, 0.3%. For the same compound, the “% control” value at DYRK1B is reported as 6.0%; in the data set with PCTK1 it was 0.3%; in the data set with PFTAIRE2, 0.4%; at ERK5, 2.9%; in the data set on CDK4-cyclinD3, 2.0%; with CDK3, 0.3%. Besides, the “% control” value on ICK was 0.9%; on PAK3, 7.8%; on TLK2, 0.5%; in the data set with PFPK5(P.falciparum), 1.2%; with CDKL5, 1.6%; on CLK4, 5.1%. In addition, the figures for the “% control” value at TAOK2 and at HIPK3 were 4.8% and 4.4%, respectively.
